Laboratory results taken from patent US20250040539A1, “COMPOSITION COMPRISING AN ANTIMICROBIAL AGENT AND A CARBOXAMIDE” (BASF SE, priority 2021, published 2025).

How the values were obtained:
[1] = tested on: bacterial mix: Escherichia coli DSM 1576, Alcaligenes faecalis DSM 13644, Pseudomonas aeuginosa ATCC 15442, Staphylococcus aureus ATCC 6538, Burkholderia …; assay: Preservative activity of a basic composition (10% PG in water, pH 7) with 2-phenoxyethanol against bacterial contamination (Example 2.1); type: cell-based; conditions: 10% PG + 0.36% PE + 0.04% amide; for d7 [CFU/ml]: day 7; for d14 [CFU/ml]: day 14; for d21 [CFU/ml]: day 21
Experimental: An aqueous composition of pH 7 comprising 10% by weight of propyleneglycol (PG) as organic solvent, 0.36% by weight of 2-phenoxyethanol (PE) as antimicrobial and 0.04% by weight of the amide listed in the below table was tested for its preserving activity against bacterial contamination (the weight percentages relate to the total weight of the composition). For this purpose, the samples were contaminated with a bacterial mix consisting of: • Escherichia coli DSM 1576 • Alcaligenes faecalis DSM 13644 • Pseudomonas aeuginosa ATCC 15442 • Staphylococcus aureus ATCC 6538 • Burkholderia cepacia DSM 7288 • Pseudomonas putida DSM 12735
The samples were inoculated with the bacterial mix at day 0, 7 and 14 to obtain 10E+06 to 10E+07 CFU/ml inoculation in the test samples (compositions listed in the below table) consisting of 10% by weight of propylene glycol in water and stored at 25° C. for 21 days.
(§1) CFU was determined before re-inoculation at days 7 and 14, and on day 21.

[2] = tested on: fungal mix (including yeasts and molds): Aspergillus brasiliensis DSM 1988, Rhodotorula mucilaginosa DSM 13621, Yarrowia lipolytica DSM 8218; assay: Preservative activity of a basic composition (10% PG in water, pH 7) with 2-phenoxyethanol against fungal contamination (Example 1.1); type: cell-based; conditions: 10% PG + 0.36% PE + 0.04% Amide in water, pH 7, 25° C.; for d7 [CFU/ml]: fungal mix inoculated at day 0, 7 and 14 (1-3x10E+05 CFU/ml), day 7 before re-inoculation; for d14 [CFU/ml] / d21 [CFU/ml]: fungal mix inoculated at day 0, 7 and 14; for d14 [CFU/ml]: day 14 before re-inoculation; for d21 [CFU/ml]: day 21
Experimental: An aqueous composition of pH 7 comprising 10% by weight of propyleneglycol (PG) as organic solvent, 0.36% by weight of 2-phenoxyethanol (PE) as antimicrobial and 0.04% by weight of the amide listed in the below table was tested for its preserving activity against fungal contamination (the percentages are weight percent and relate to the total weight of the composition). For this purpose, the samples were contaminated with a fungal mix (including yeasts and molds) consisting of: • Aspergillus brasiliensis DS M 1988 • Rhodotorula mucilaginosa DSM 13621 • Yarrowia lipolytica DS M 8218
To control the efficacy, following control compositions were tested: • “Reference”, consisting of only 10% by weight of propylene glycol in water • “Comparative 1” containing 10% by weight of propylene glycol and amide in the given concentration, but no 2-phenoxyethanol • […] in the given concentration, but no amide.
The samples were inoculated with the fungal mix at day 0, 7 and 14 to obtain a cell density in the range of 1-3×10E+05 CFU/ml (CFU=colony forming units) in the test samples (compositions listed in the below table) and stored at 25° C. for 21 days.
as §1

CCCCCC(CCC)C(=O)N(C)C (stereo not drawn) [2-Propyl-heptanoyl-N,N-dimethylamide]
d7 [CFU/ml] [1]: <10 CFU/ml | d14 [CFU/ml] [1]: 90 CFU/ml | d21 [CFU/ml] [1]: 2,700 CFU/ml

CCCCCC(CCC)C(=O)N(C)C (stereo not drawn) [2-Propylheptanoyl-N,N-dimethylamide]
d7 [CFU/ml] [2]: 5,200 CFU/ml | d14 [CFU/ml] [2]: 3,250 CFU/ml | d21 [CFU/ml] [2]: 8,000 CFU/ml

CCCCCCCCCCCC(=O)N(C)C [Dodecanoyl-N,N-dimethylamide]
d7 [CFU/ml] [1]: <10 CFU/ml | d14 [CFU/ml] [1]: <10 CFU/ml | d21 [CFU/ml] [1]: 450 CFU/ml | d7 [CFU/ml] [2]: 25 CFU/ml | d14 [CFU/ml] [2]: 170 CFU/ml | d21 [CFU/ml] [2]: 245 CFU/ml

CCCCCCN(CCCCCC)C(C)=O [Ethanoyl-N,N-dihexylamide]
d7 [CFU/ml] [1]: 75 CFU/ml | d14 [CFU/ml] [1]: 200 CFU/ml | d21 [CFU/ml] [1]: 1,450 CFU/ml | d7 [CFU/ml] [2]: 3,100 CFU/ml | d14 [CFU/ml] [2]: 2,750 CFU/ml | d21 [CFU/ml] [2]: 2,450 CFU/ml

CC(CC(=O)N(C)C)CC(C)(C)C (stereo not drawn) [Isononanoyl-N,N-dimethylamide]
d7 [CFU/ml] [1]: 3,850 CFU/ml | d14 [CFU/ml] [1]: 13,500 CFU/ml | d21 [CFU/ml] [1]: 5,000 CFU/ml | d7 [CFU/ml] [2]: 3,600 CFU/ml | d14 [CFU/ml] [2]: 3,350 CFU/ml | d21 [CFU/ml] [2]: 15,000 CFU/ml
